From US4616081A, “Cephalosporin compounds” (Asahi Kasei Kogyo Kabushiki Kaisha, priority 1982, dated 1986)

Assays:
E. coli NIHJ-JC2 = experiment: MIC against E. coli NIHJ-JC2; format: cell-based
Protocol: (§1) Nextly, antibacterial activity or minimum inhibitory concentration (MIC) was measured and the results are shown in Table 1 with respect to the following representative compounds according to the present invention. [drawing 19]
(§2) With respect to Compound Nos. 14 and 15, antibacterial activity or minimum inhibitory concentration (MIC) was measured and the results are shown in Table 2. [drawing 21]

[1] = acute toxicity test using mice, intraperitoneal; settings: mouse, in vivo, ip
Text: In addition to excellent antibacterial activity, the compounds of the present invention are low in toxicity. For example, in acute toxicity test using mice, the following results were obtained with Compound Nos. 2, 3, 7, 14, 15 and 23 which were intraperitoneally administered.

Bac. subtilis ATCC 6633 = experiment: MIC against Bac. subtilis ATCC 6633; format: cell-based; settings: Bacterial count inoculated 10^6 cells/ml
Protocol: as §2

Ps. aeruginosa 0812 M2 = experiment: MIC against Ps. aeruginosa 0812 M2; format: cell-based; settings: Bacterial count inoculated 10^6 cells/ml
Protocol: as §1, §2

Proteus rettgeri ACR = experiment: MIC against Proteus rettgeri ACR; format: cell-based
Protocol: as §1, §2

[2] = tested on: Klebs. pneumoniae ATCC 10031; experiment: MIC against Klebs. pneumoniae ATCC 10031; format: cell-based
Protocol: as §1, §2

Staph. aureus MS27 = experiment: MIC against Staph. aureus MS27; format: cell-based; settings: Bacterial count inoculated 10^6 cells/ml
Protocol: as §1, §2

Proteus morganii 0239 = experiment: MIC against Proteus morganii 0239; format: cell-based; settings: Bacterial count inoculated 10^6 cells/ml
Protocol: as §1, §2

[3] = tested on: Salm. enteritidis Gaertner; experiment: MIC against Salm. enteritidis Gaertner; format: cell-based; settings: Bacterial count inoculated 10^6 cells/ml
Protocol: as §1, §2

E. coli W3630 = experiment: MIC against E. coli W3630; format: cell-based
Protocol: as §1, §2

Serratia marcescens = experiment: MIC against Serratia marcescens; format: cell-based
Protocol: as §1, §2

Sarcina lutea ATCC 9341 = experiment: MIC against Sarcina lutea ATCC 9341; format: cell-based; settings: Bacterial count inoculated 10^6 cells/ml
Protocol: as §1, §2

[4] = maximum blood concentration after oral administration in Wister rats (HPLC and Bioassay); format: in vivo; settings: Wister rat, fasted, 30 mg/kg, solution of pH 7 in phosphate buffer
Protocol: Further in the compounds according to the present invention, intestinal absorption is improved by the introduction of amino acids at the 3-position thereof. For example, comparison of the maximum blood concentration of the Compound Nos. 2, 3, 7, 8, 14, 15 and 23 with that of Comparative Compound (b) establishes and affirms the effects, as is shown below. In the above test, the method for measurement of blood concentration was as follows. Rate: Wister rat weighing 170 to 220 g Dose: 30 mg/kg Wister rats were fasted from the previous night but freely accessible to water. Each of drugs was administered as a solution of pH 7 in a phosphate buffer, when orally administered. The blood concentration was measured in accordance with the High Performance Liquid Chromatography (HPLC) method and the Bioassay method by using E. coli as bacteria for test.

[5] = tested on: Citrobact. freundii GN346; experiment: MIC against Citrobact. freundii GN346; format: cell-based; settings: Bacterial count inoculated 10^6 cells/ml
Protocol: as §1, §2

E. coli W3630 PS3 = experiment: MIC against E. coli W3630 PS3; format: cell-based; settings: Bacterial count inoculated 10^6 cells/ml
Protocol: as §1, §2

Shigella sonnei E33 = experiment: MIC against Shigella sonnei E33; format: cell-based
Protocol: as §1, §2

[6] = tested on: Enterobact. cloacae GN336; experiment: MIC against Enterobact. cloacae GN336; format: cell-based
Protocol: as §1, §2

Staph. aureus ATCC 6538P = experiment: MIC against Staph. aureus ATCC 6538P; format: cell-based; settings: Bacterial count inoculated 10^6 cells/ml
Protocol: as §1, §2

[7] = tested on: Enterobact. aerogenes 0655; experiment: MIC against Enterobact. aerogenes 0655; format: cell-based; settings: Bacterial count inoculated 10^6 cells/ml
Protocol: as §1, §2

Strept. pyogenes NY5 = experiment: MIC against Strept. pyogenes NY5; format: cell-based; settings: Bacterial count inoculated 10^6 cells/ml
Protocol: as §1, §2

E. coli W3630 RGN14 = experiment: MIC against E. coli W3630 RGN14; format: cell-based
E. coli W3630 RGN238 = experiment: MIC against E. coli W3630 RGN238; format: cell-based
E. coli 0205 = experiment: MIC against E. coli 0205; format: cell-based
[8] = Bacterial count inoculated 10^6 cells/ml
[9] = Table 3, second listing of the strain, head prints 10^6 cells/ml

SMILES | Minimum Inhibitory Concentration (MIC) (E. coli NIHJ-JC2; [8]) | LD50 [1] [mg/kg] | Minimum Inhibitory Concentration (MIC) (Bac. subtilis ATCC 6633) | Minimum Inhibitory Concentration (MIC) (Ps. aeruginosa 0812 M2) | Minimum Inhibitory Concentration (MIC) (Proteus rettgeri ACR; [8]) | Minimum Inhibitory Concentration (MIC) [2, 8] | Minimum Inhibitory Concentration (MIC) (Staph. aureus MS27) | Minimum Inhibitory Concentration (MIC) (Proteus morganii 0239) | Minimum Inhibitory Concentration (MIC) [3] | Minimum Inhibitory Concentration (MIC) (E. coli W3630; [8]) | Minimum Inhibitory Concentration (MIC) (Serratia marcescens; [8]) | Minimum Inhibitory Concentration (MIC) (Sarcina lutea ATCC 9341) | Cmax [4] [ng/mL] | Minimum Inhibitory Concentration (MIC) [5] | Minimum Inhibitory Concentration (MIC) (E. coli W3630 PS3) | Minimum Inhibitory Concentration (MIC) (Shigella sonnei E33; [8]) | Minimum Inhibitory Concentration (MIC) [6, 8] | Minimum Inhibitory Concentration (MIC) (Staph. aureus ATCC 6538P) | Minimum Inhibitory Concentration (MIC) [7] | Minimum Inhibitory Concentration (MIC) (Strept. pyogenes NY5) | further results
CO/N=C(\C(=O)N[C@@H]1C(=O)N2C(C(=O)O)=C(C[n+]3ccc(CC(N)C(=O)O)cc3)CS[C@H]12)c1csc(N)n1 (stereo partly drawn) [Compound No. 14, 7β-[(Z)-2-(2-amino-4-thiazolyl)-2-(methoxyimino)acetamido]-3-[4-(2-amino-2-carboxy)ethyl-1-pyridiummethyl]-3-cephem-4-carboxylic acid] | 0.1 | 9000 to 10000 | ≤ 0.1 | 3.1 | 0.2 | ≤ 0.1 | 3.1 | 0.2 | ≤ 0.1 | ≤ 0.1 | 0.1 | 0.8 | 9000 | 12.5 | ≤ 0.1 | ≤ 0.1 | 0.2 | 6.3 | 0.2 | 0.1 | –
CO/N=C(\C(=O)N[C@@H]1C(=O)N2C(C(=O)O)=C(C[n+]3cccc(CC(N)C(=O)O)c3)CS[C@H]12)c1csc(N)n1 (some centres unmarked) [Compound No. 15] | 0.2 | 10000 to 12000 | 1.6 | 6.3 | 0.2 | 0.1 | 6.3 | 0.2 | ≤ 0.1 | 0.2 | 0.4 | ≤ 0.1 | 12000 | 12.5 | 0.1 | ≤ 0.1 | 0.2 | 3.1 | 0.2 | ≤ 0.1 | –
CO/N=C(\C(=O)N[C@@H]1C(=O)N2C(C(=O)O)=C(CSc3ncc(C[C@H](N)C(=O)O)[nH]3)CS[C@H]12)c1csc(N)n1 [Compound No. 23] | ≤ 0.2 | 10000 to 12000 | – | – | ≤ 0.2 | ≤ 0.2 | – | – | – | ≤ 0.2 | ≤ 0.2 | – | 6000 | – | – | ≤ 0.2 | ≤ 0.2 | – | – | – | Minimum Inhibitory Concentration (MIC) (E. coli NIHJ-JC2; [9]): 12.5; Minimum Inhibitory Concentration (MIC) (E. coli W3630 RGN14; [8]): ≤ 0.2; Minimum Inhibitory Concentration (MIC) (E. coli W3630 RGN14; [9]): 6.3; Minimum Inhibitory Concentration (MIC) (E. coli W3630 RGN238; [8]): ≤ 0.2; Minimum Inhibitory Concentration (MIC) (E. coli W3630 RGN238; [9]): 25; Minimum Inhibitory Concentration (MIC) (Proteus rettgeri ACR; [9]): 25; Minimum Inhibitory Concentration (MIC) [2, 9]: 1.6; Minimum Inhibitory Concentration (MIC) (E. coli W3630; [9]): 6.3; Minimum Inhibitory Concentration (MIC) (E. coli 0205; [8]): 0.4; Minimum Inhibitory Concentration (MIC) (E. coli 0205; [9]): 12.5; Minimum Inhibitory Concentration (MIC) (Serratia marcescens; [9]): > 100; Minimum Inhibitory Concentration (MIC) (Shigella sonnei E33; [9]): 1.6; Minimum Inhibitory Concentration (MIC) [6, 9]: 25
